Laboratory results published in ChEMBL document CHEMBL4145553, “Design, synthesis, and biological evaluation of novel amide and hydrazide based thioether analogs targeting Histone deacteylase (HDAC) enzymes” (Eur J Med Chem, 2018).
Calls of active or inactive are those of the source. The calls are words filed in the database; no cut-off is given here.

Experiments:
CCRF-CEM [1] = assay: Growth inhibition of human CCRF-CEM cells assessed as cell growth at 10^-8 M incubated for 48 hrs by sulforhodamine B assay relative to control; assay type: functional; conditions: read-out: Activity
NCI-H460 = assay: Growth inhibition of human NCI-H460 cells assessed as cell growth at 10^-8 M incubated for 48 hrs by sulforhodamine B assay relative to control; assay type: functional; conditions: NCI-H460, 48 h, read-out: Activity
NCI-H522 = assay: Growth inhibition of human NCI-H522 cells assessed as cell growth at 10^-8 M incubated for 48 hrs by sulforhodamine B assay relative to control; assay type: functional; conditions: NCI-H522, 48 h, read-out: Activity
SW-620 = assay: Growth inhibition of human SW620 cells assessed as cell growth at 10^-8 M incubated for 48 hrs by sulforhodamine B assay relative to control; assay type: functional; conditions: SW-620, 48 h, read-out: Activity
OVCAR-5 = assay: Growth inhibition of human OVCAR5 cells assessed as cell growth at 10^-8 M incubated for 48 hrs by sulforhodamine B assay relative to control; assay type: functional; conditions: OVCAR-5, 48 h, read-out: Activity
M14 = assay: Growth inhibition of human M14 cells assessed as cell growth at 10^-7 M incubated for 48 hrs by sulforhodamine B assay relative to control; assay type: functional; conditions: M14, 48 h, read-out: Activity
UACC-257 [2] = assay: Growth inhibition of human UACC257 cells assessed as cell growth at 10^-7 M incubated for 48 hrs by sulforhodamine B assay relative to control; assay type: functional; conditions: UACC-257, 48 h, read-out: Activity
CCRF-CEM [3] = assay: Growth inhibition of human CCRF-CEM cells assessed as cell growth at 10^-6 M incubated for 48 hrs by sulforhodamine B assay relative to control; assay type: functional; conditions: read-out: Activity
OVCAR-4 = assay: Growth inhibition of human OVCAR4 cells assessed as cell growth at 10^-6 M incubated for 48 hrs by sulforhodamine B assay relative to control; assay type: functional; conditions: OVCAR-4, 48 h, read-out: Activity
ACHN = assay: Growth inhibition of human ACHN cells assessed as cell growth at 10^-6 M incubated for 48 hrs by sulforhodamine B assay relative to control; assay type: functional; conditions: read-out: Activity
BT-549 [4] = assay: Growth inhibition of human BT549 cells assessed as cell growth at 10^-6 M incubated for 48 hrs by sulforhodamine B assay relative to control; assay type: functional; conditions: BT-549, 48 h, read-out: Activity
EKVX = assay: Growth inhibition of human EKVX cells assessed as cell growth at 10^-5 M incubated for 48 hrs by sulforhodamine B assay relative to control; assay type: functional; conditions: read-out: Activity
HOP-62 = assay: Growth inhibition of human HOP62 cells assessed as cell growth at 10^-5 M incubated for 48 hrs by sulforhodamine B assay relative to control; assay type: functional; conditions: HOP-62, 48 h, read-out: Activity
HCT-15 = assay: Growth inhibition of human HCT15 cells assessed as cell growth at 10^-5 M incubated for 48 hrs by sulforhodamine B assay relative to control; assay type: functional; conditions: HCT-15, 48 h, read-out: Activity
SF-268 [5] = assay: Growth inhibition of human SF268 cells assessed as cell growth at 10^-5 M incubated for 48 hrs by sulforhodamine B assay relative to control; assay type: functional; conditions: SF-268, 48 h, read-out: Activity
SF-539 = assay: Growth inhibition of human SF539 cells assessed as cell growth at 10^-5 M incubated for 48 hrs by sulforhodamine B assay relative to control; assay type: functional; conditions: SF-539, 48 h, read-out: Activity
UACC-257 [6] = assay: Growth inhibition of human UACC257 cells assessed as cell growth at 10^-5 M incubated for 48 hrs by sulforhodamine B assay relative to control; assay type: functional; conditions: UACC-257, 48 h, read-out: Activity
RXF 393 = assay: Growth inhibition of human RXF393 cells assessed as cell growth at 10^-5 M incubated for 48 hrs by sulforhodamine B assay relative to control; assay type: functional; conditions: RXF 393, 48 h, read-out: Activity
NCI-H23 = assay: Growth inhibition of human NCI-H23 cells assessed as cell growth at 10^-4 M incubated for 48 hrs by sulforhodamine B assay relative to control; assay type: functional; conditions: NCI-H23, 48 h, read-out: Activity
SF-268 [7] = assay: Growth inhibition of human SF268 cells assessed as cell growth at 10^-4 M incubated for 48 hrs by sulforhodamine B assay relative to control; assay type: functional; conditions: SF-268, 48 h, read-out: Activity
IGROV-1 = assay: Growth inhibition of human IGROV1 cells assessed as cell growth at 10^-4 M incubated for 48 hrs by sulforhodamine B assay relative to control; assay type: functional; conditions: IGROV-1, 48 h, read-out: Activity
OVCAR-3 = assay: Growth inhibition of human OVCAR3 cells assessed as cell growth at 10^-4 M incubated for 48 hrs by sulforhodamine B assay relative to control; assay type: functional; conditions: OVCAR-3, 48 h, read-out: Activity
BT-549 [8] = assay: Growth inhibition of human BT549 cells assessed as cell growth at 10^-4 M incubated for 48 hrs by sulforhodamine B assay relative to control; assay type: functional; conditions: BT-549, 48 h, read-out: Activity
RPMI-8226 = assay: Growth inhibition of human RPMI8226 cells incubated for 48 hrs by sulforhodamine B assay; assay type: functional; conditions: RPMI-8226, 48 h
SR = assay: Growth inhibition of human SR cells incubated for 48 hrs by sulforhodamine B assay; assay type: functional
HCT-116 = assay: Growth inhibition of human HCT116 cells incubated for 48 hrs by sulforhodamine B assay; assay type: functional; conditions: HCT-116, 48 h
UO-31 = assay: Growth inhibition of human UO31 cells incubated for 48 hrs by sulforhodamine B assay; assay type: functional; conditions: UO-31, 48 h
DU-145 = assay: Growth inhibition of human DU145 cells incubated for 48 hrs by sulforhodamine B assay; assay type: functional; conditions: DU-145, 48 h
HL-60 = assay: Induction of apoptosis in human HL60 cells assessed as late apoptotic cells by propidium iodide/Annexin V staining based flow cytometry (reference value: 0.54%); assay type: functional
MDA-MB-435 [9] = assay: Induction of apoptosis in human MDA-MB-435 cells assessed as increase in caspase-3 expression by qRT-PCR method; assay type: functional, cell-based
MDA-MB-435 [10] = assay: Downregulation of HDAC2 mRNA expression in human MDA-MB-435 cells by qRT-PCR method relative to control; assay type: functional
[11] = read-out: LC50 (the source's name)
[12] = read-out: pLC50 (the source's name) (converted)

CCS/C(Nc1ccccc1)=C(\C#N)C(=O)Nc1ccc(OC)cc1
growth at 0.01 µM (CCRF-CEM [1]): 91%
growth at 0.01 µM (NCI-H460): 105%
growth at 0.01 µM (NCI-H522): 107%
growth at 0.01 µM (SW-620): 97%
growth at 0.01 µM (OVCAR-5): 104%
growth at 0.1 µM (M14): 93%
growth at 0.1 µM (UACC-257 [2]): 95%
growth at 1 µM (CCRF-CEM [3]): 64%
growth at 1 µM (OVCAR-4): 88%
growth at 1 µM (ACHN): 90%
growth at 1 µM (BT-549 [4]): 74%
growth at 10 µM (EKVX): 31%
growth at 10 µM (HOP-62): 41%
growth at 10 µM (HCT-15): 16%
growth at 10 µM (SF-268 [5]): 42%
growth at 10 µM (SF-539): -41%
growth at 10 µM (UACC-257 [6]): 56%
growth at 10 µM (RXF 393): -10%
growth at 100 µM (NCI-H23): 21%
growth at 100 µM (SF-268 [7]): 11%
growth at 100 µM (IGROV-1): 28%
growth at 100 µM (OVCAR-3): -15%
growth at 100 µM (BT-549 [8]): 12%
GI50 (RPMI-8226; read-out: GI50): 2.52 µM
CC50 (RPMI-8226; [11]): > 100 µM
TGI (RPMI-8226; read-out: TGI): > 100 µM
GI50 (RPMI-8226; read-out: pGI50 (converted)): 2.51 µM
CC50 (RPMI-8226; [12]): > 100 µM
TGI (RPMI-8226; read-out: pTGI): > 100 µM
GI50 (SR; read-out: GI50): 1.54 µM
CC50 (SR; [11]): > 100 µM
TGI (SR; read-out: TGI): > 100 µM
GI50 (SR; read-out: pGI50 (converted)): 1.55 µM
CC50 (SR; [12]): > 100 µM
TGI (SR; read-out: pTGI): > 100 µM
GI50 (HCT-116; read-out: GI50): 1.95 µM
CC50 (HCT-116; [11]): > 100 µM
TGI (HCT-116; read-out: TGI): 16.4 µM
GI50 (HCT-116; read-out: pGI50 (converted)): 1.95 µM
CC50 (HCT-116; [12]): > 100 µM
TGI (HCT-116; read-out: pTGI (converted)): 16.6 µM
GI50 (UO-31; read-out: GI50): 5.49 µM
CC50 (UO-31; [11]): > 100 µM
TGI (UO-31; read-out: TGI): > 100 µM
GI50 (UO-31; read-out: pGI50 (converted)): 5.5 µM
CC50 (UO-31; [12]): > 100 µM
TGI (UO-31; read-out: pTGI): > 100 µM
GI50 (DU-145; read-out: GI50): 3.48 µM
CC50 (DU-145; [11]): > 100 µM
TGI (DU-145; read-out: TGI): 49.8 µM
GI50 (DU-145; read-out: pGI50 (converted)): 3.47 µM
CC50 (DU-145; [12]): > 100 µM
TGI (DU-145; read-out: pTGI (converted)): 50.1 µM
Activity (HL-60): 7.19%
Activity (MDA-MB-435 [9]): Active
fold change (FC) (MDA-MB-435 [10]): <=10

CCS/C(Nc1ccccc1)=C(\C#N)C(=O)N/N=C\c1ccc(Cl)cc1Cl
growth at 0.01 µM (CCRF-CEM [1]): 103%
growth at 0.01 µM (NCI-H460): 100%
growth at 0.01 µM (NCI-H522): 109%
growth at 0.01 µM (SW-620): 97%
growth at 0.01 µM (OVCAR-5): 105%
growth at 0.1 µM (M14): 93%
growth at 0.1 µM (UACC-257 [2]): 94%
growth at 1 µM (CCRF-CEM [3]): 82%
growth at 1 µM (OVCAR-4): 86%
growth at 1 µM (ACHN): 92%
growth at 1 µM (BT-549 [4]): 76%
growth at 10 µM (EKVX): 35%
growth at 10 µM (HOP-62): 29%
growth at 10 µM (HCT-15): 19%
growth at 10 µM (SF-268 [5]): 42%
growth at 10 µM (SF-539): 3%
growth at 10 µM (UACC-257 [6]): 61%
growth at 10 µM (RXF 393): -5%
growth at 100 µM (NCI-H23): 36%
growth at 100 µM (SF-268 [7]): 27%
growth at 100 µM (IGROV-1): 30%
growth at 100 µM (OVCAR-3): -23%
growth at 100 µM (BT-549 [8]): 7%
GI50 (RPMI-8226; read-out: GI50): 3.68 µM
CC50 (RPMI-8226; [11]): > 100 µM
TGI (RPMI-8226; read-out: TGI): > 100 µM
GI50 (RPMI-8226; read-out: pGI50 (converted)): 3.72 µM
CC50 (RPMI-8226; [12]): > 100 µM
TGI (RPMI-8226; read-out: pTGI): > 100 µM
GI50 (SR; read-out: GI50): 3.45 µM
CC50 (SR; [11]): > 100 µM
TGI (SR; read-out: TGI): > 100 µM
GI50 (SR; read-out: pGI50 (converted)): 3.47 µM
CC50 (SR; [12]): > 100 µM
TGI (SR; read-out: pTGI): > 100 µM
GI50 (HCT-116; read-out: GI50): 2.99 µM
CC50 (HCT-116; [11]): > 100 µM
TGI (HCT-116; read-out: TGI): > 100 µM
GI50 (HCT-116; read-out: pGI50 (converted)): 3.02 µM
CC50 (HCT-116; [12]): > 100 µM
TGI (HCT-116; read-out: pTGI (converted)): > 100 µM
GI50 (UO-31; read-out: GI50): 6.91 µM
CC50 (UO-31; [11]): > 100 µM
TGI (UO-31; read-out: TGI): > 100 µM
GI50 (UO-31; read-out: pGI50 (converted)): 6.92 µM
CC50 (UO-31; [12]): > 100 µM
TGI (UO-31; read-out: pTGI): > 100 µM
GI50 (DU-145; read-out: GI50): 3.57 µM
CC50 (DU-145; [11]): > 100 µM
TGI (DU-145; read-out: TGI): > 100 µM
GI50 (DU-145; read-out: pGI50 (converted)): 3.55 µM
CC50 (DU-145; [12]): > 100 µM
TGI (DU-145; read-out: pTGI (converted)): > 100 µM
Activity (HL-60): 8.54%
Activity (MDA-MB-435 [9]): Active
fold change (FC) (MDA-MB-435 [10]): <=10
